Common to all, as to test: glucosylation kinetics, Michaelis-Menten
Type in all cases: biochemical

One experiment concerns the target T1, UGT72B68 (Solanum lycopersicum, UniProt D7S016).
T1 sequence (D7S016 1-476): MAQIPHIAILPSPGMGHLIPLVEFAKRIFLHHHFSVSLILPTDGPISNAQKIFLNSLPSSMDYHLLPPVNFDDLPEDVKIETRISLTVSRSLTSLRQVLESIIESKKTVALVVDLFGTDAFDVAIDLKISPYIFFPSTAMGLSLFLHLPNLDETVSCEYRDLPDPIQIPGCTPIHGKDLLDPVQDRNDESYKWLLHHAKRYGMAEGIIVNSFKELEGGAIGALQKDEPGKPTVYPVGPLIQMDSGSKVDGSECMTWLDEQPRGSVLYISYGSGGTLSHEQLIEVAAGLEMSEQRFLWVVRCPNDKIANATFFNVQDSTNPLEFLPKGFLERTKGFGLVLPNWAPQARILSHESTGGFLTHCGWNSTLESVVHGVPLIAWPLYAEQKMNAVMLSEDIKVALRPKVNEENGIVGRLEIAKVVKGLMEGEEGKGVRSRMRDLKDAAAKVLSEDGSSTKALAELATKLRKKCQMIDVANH
The conditions noted are these: UDP-glucose donor; phosphate buffer pH 8.0; 35 °C.

The target of another experiment is T2, UGT71C1 (Arabidopsis thaliana, UniProt O82381).
T2 sequence (O82381 1-481): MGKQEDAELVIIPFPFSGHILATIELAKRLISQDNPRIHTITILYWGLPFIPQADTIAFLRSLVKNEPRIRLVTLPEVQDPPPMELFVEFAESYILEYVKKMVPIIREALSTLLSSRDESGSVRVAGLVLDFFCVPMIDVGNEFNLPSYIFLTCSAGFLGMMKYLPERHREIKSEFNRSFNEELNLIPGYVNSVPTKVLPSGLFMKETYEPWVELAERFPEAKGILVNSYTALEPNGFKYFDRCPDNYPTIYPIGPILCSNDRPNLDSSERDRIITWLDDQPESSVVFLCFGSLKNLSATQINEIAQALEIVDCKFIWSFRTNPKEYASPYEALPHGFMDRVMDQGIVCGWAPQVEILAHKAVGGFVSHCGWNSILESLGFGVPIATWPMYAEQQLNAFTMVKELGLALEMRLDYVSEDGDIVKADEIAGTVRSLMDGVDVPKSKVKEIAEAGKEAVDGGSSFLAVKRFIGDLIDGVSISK
The following applies: UDP-glucose donor; phosphate buffer pH 8.0; 30 °C.

In a further experiment the target is T3, UGT72B19 (Fagopyrum esculentum, UniProt A0A0A1H7P3).
T3 sequence (A0A0A1H7P3 1-474): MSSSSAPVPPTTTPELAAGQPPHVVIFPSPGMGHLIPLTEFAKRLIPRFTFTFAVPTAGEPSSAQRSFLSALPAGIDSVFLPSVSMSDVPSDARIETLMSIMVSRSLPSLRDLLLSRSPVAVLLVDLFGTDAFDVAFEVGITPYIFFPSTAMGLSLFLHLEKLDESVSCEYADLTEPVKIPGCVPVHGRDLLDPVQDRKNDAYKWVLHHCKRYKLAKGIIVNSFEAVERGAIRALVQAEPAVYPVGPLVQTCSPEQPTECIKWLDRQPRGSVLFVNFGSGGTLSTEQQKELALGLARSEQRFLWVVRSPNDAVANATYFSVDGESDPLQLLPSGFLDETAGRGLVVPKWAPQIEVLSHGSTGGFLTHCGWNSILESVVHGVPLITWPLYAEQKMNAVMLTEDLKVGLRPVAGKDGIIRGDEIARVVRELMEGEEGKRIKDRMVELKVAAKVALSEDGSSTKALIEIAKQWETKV
The conditions noted are these: UDP-glucose donor; phosphate buffer pH 8.0; 39 °C.

Km data for one compound are collected here from article doi:10.1101/2025.05.29.656899v1 (biorxiv, 2025).

The Km is the concentration of substrate that gives half-maximal velocity.

Regarding `COC(=O)c1ccccc1N` [MANT, methyl anthranilate], the figures for the Km at UGT72B68, at UGT71C1 and on UGT72B19 were 347 ± 45.7 µM, 164 ± 22 µM and 212 ± 19.1 µM, respectively.
